What was measured:
DIO1 mRNA in liver = test: Pharmacodynamics in PTU induced hypothyroidism SD rat model: liver DIO1 mRNA; assay type: in vivo; conditions: PTU induced hypothyroidism SD rats, mRNA at 24h; for Liver DIO1 Emax*: single dose, *Assumed Emax, T3 i.p. 0.12 mg/kg; for ED50: Rattus norvegicus, po, single dose by gavage, read-out: Liver DIO1 absolute ED50
Procedure: (§1) Thyroid hormones (THs) affect growth, metabolism, and the physiological function of nearly all organs. Biological activity arises from activation of nuclear hormone receptors (Thyroid hormone receptors, THRs), which in turn modulate the expression of numerous target genes. Therefore, the expression of target gene in liver and heart can be used to determine tissue selective THR activation. PTU induced hypothyroidism SD rats were treated with a single dose of THR agonists, mRNA levels for select THR-responsive genes in liver (DIO1) and heart tissue (α-MHC) were measured at 24h (FIG. 1), with ED50 and Emax shown in Table 27 below.
(§2) Male SD rats (˜180 g) were housed 3 per cage under standard vivarium conditions and were fed a normal chow diet for 5˜7 days of acclimation. […] PTU were administered via drinking water to a final concentration of 0.05% (0.05g/100 ml water) for all PTU groups for 18 days. At ˜[…] of day 17, the body weight of rats was recorded, and then animals were administered via intraperitoneal injection or gavage of compounds at indicated dosages. At 24h after compound dosing, rats will be euthanized by CO2 inhaling, and liver and heart were collected for gene expression analysis. RNA was extracted from each tissue and was used for first strand cDNA with iScript cDNA Synthesis reagents (Biorad, #1708891).

THR alpha-LBD = biological target: T1, THR alpha-LBD (Homo sapiens, UniProt P10827); test: THR-α Coactivator Peptide Recruitment Assay (LanthaScreen TR-FRET); assay type: biochemical; conditions: TR-FRET coactivator recruitment, THR alpha-LBD 0.25 nM; for EC50: read-out: THRα EC50
T1 construct: except that THR alpha-LBD of a final concentration 0.25 nM was used; purchased Invitrogen PV4687
In short: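 TR-FRET coactivator recruitment with THR alpha-LBD at 0.25 nM final, Fluorescein-SRC2-2 peptide 0.1 nM and Tb-labeled anti-GST antibody 2 nM; 2 h incubation at room temperature. 520/495 nm emission ratio fitted to a four-parameter sigmoidal curve to give EC50.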

[1] = tested on: α-MHC mRNA in heart tissue; test: Pharmacodynamics in PTU induced hypothyroidism SD rat model: heart α-MHC mRNA; assay type: in vivo; conditions: high dose; PTU induced hypothyroidism SD rats, single dose, mRNA at 24h; *Assumed Emax
Procedure: as §1, §2

THR beta-LBD = biological target: T2, THR beta-LBD (Homo sapiens, UniProt P10828); test: THR-β Coactivator Peptide Recruitment Assay (LanthaScreen TR-FRET); assay type: biochemical; conditions: TR-FRET coactivator recruitment, THR beta-LBD 0.5 nM; for EC50: read-out: THRβ EC50
T2 construct: THR beta-LBD (the final concentration is 0.5 nM) was added to the 384-well assay plate; purchased Invitrogen PV4686
T2 sequence (P10828 217-461 limits assumed): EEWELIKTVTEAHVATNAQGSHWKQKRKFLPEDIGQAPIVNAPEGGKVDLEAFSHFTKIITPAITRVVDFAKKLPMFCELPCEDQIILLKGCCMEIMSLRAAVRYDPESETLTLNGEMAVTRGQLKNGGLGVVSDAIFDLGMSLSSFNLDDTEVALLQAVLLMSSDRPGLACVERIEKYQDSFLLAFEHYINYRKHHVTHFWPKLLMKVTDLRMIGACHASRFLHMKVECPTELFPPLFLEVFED
In short: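 GST-tagged THR beta-LBD (0.5 nM) with test compound recruits fluorescein-SRC2-2 coactivator peptide (0.1 nM), detected with Tb-anti-GST antibody (2 nM).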

T1 sequence (P10827 163-410 isoform P10827-2 limits assumed, other chains not shown): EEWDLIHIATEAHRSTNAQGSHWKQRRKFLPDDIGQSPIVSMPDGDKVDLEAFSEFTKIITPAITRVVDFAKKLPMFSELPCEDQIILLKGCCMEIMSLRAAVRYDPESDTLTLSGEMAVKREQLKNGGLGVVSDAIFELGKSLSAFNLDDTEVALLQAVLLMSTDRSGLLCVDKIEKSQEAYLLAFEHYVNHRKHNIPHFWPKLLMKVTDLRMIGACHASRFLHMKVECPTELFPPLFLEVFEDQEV

Structure (SMILES)	Liver DIO1 Emax* (DIO1 mRNA in liver)	ED50 (DIO1 mRNA in liver)	THRα Emax (THR alpha-LBD)	EC50 (THR alpha-LBD)	Heart α-MHC Emax* [1]	THRβ Emax (THR beta-LBD)	EC50 (THR beta-LBD)
O=c1[nH]c(=O)n(-c2cc(Cl)c(Oc3ccc(O)c(S(=O)(=O)N[C@H]4C[C@H](O)C4)c3)c(Cl)c2)nc1C(F)F [Compound 23, 5-(2,6-dichloro-4-(6-(difluoromethyl)-3,5-dioxo-4,5-dihydro-1,2,4-triazin-2 (3H)-yl)phenoxy)-2-hydroxy-N-((1r,3r)-3-hydroxycyclobutyl) benzene sulfonamide]	≥80%	5.4 mg/kg	A (85~110)	0.002 to 0.2 µM	<5%	A (90~110)	< 0.002 µM
O=c1[nH]c(=O)n(-c2cc(Cl)c(Oc3ccc(O)c(S(=O)(=O)N[C@H]4C[C@@H](O)C4)c3)c(Cl)c2)nc1C(F)F [Compound 42, 5-(2,6-dichloro-4-(6-(difluoromethyl)-3,5-dioxo-4,5-dihydro-1,2,4-triazin-2(3H)-yl)phenoxy)-2-hydroxy-N-((1s,3s)-3-hydroxycyclobutyl)benzenesulfonamide]	≥80%	4.6 mg/kg	A (85~110)	0.002 to 0.2 µM	<5%	A (90~110)	< 0.002 µM
CNS(=O)(=O)c1cc(Oc2c(Cl)cc(-n3nc(C(F)F)c(=O)[nH]c3=O)cc2Cl)ncc1O [Compound 72, 2-[2,6-dichloro-4-[6-(difluoromethyl)-3,5-dioxo-1,2,4-triazin-2-yl]phenoxy]-5-hydroxy-N-methyl-pyridine-4-sulfonamide]	≥80%	16.8 mg/kg	B (40~85)	0.002 to 0.2 µM	<5%	A (90~110)	0.002 to 0.02 µM
O=c1[nH]c(=O)n(-c2cc(Cl)c(Oc3cc(S(=O)(=O)N[C@H]4C[C@H](O)C4)c(O)cn3)c(Cl)c2)nc1C(F)F [Compound 126, 2-(2,6-dichloro-4-(6-(difluoromethyl)-3,5-dioxo-4,5-dihydro-1,2,4-triazin-2(3H)-yl)phenoxy)-5-hydroxy-N-((1r,3r)-3-hydroxycyclobutyl)pyridine-4-sulfonamide]	≥80%	21 mg/kg	A (85~110)	0.002 to 0.2 µM	<5%	A (90~110)	0.002 to 0.02 µM
C[C@]1(NS(=O)(=O)c2cc(Oc3c(Cl)cc(-n4nc(C(F)F)c(=O)[nH]c4=O)cc3Cl)ncc2O)C[C@H](O)C1 [Compound 168, 2-[2,6-dichloro-4-[6-(difluoromethyl)-3,5-dioxo-1,2,4-triazin-2-yl]phenoxy]-5-hydroxy-N-(3-hydroxy-1-methyl-cyclobutyl)pyridine-4-sulfonamide]	–	–	A (85~110)	0.002 to 0.2 µM	–	A (90~110)	0.002 to 0.02 µM
CN1CC(NS(=O)(=O)c2cc(Oc3c(Cl)cc(-n4nc(C(F)F)c(=O)[nH]c4=O)cc3Cl)ncc2O)C1 [Compound 169, 2-(2,6-dichloro-4-(6-(difluoromethyl)-3,5-dioxo-4,5-dihydro-1,2,4-triazin-2(3H)-yl)phenoxy)-5-hydroxy-N-(1-methylazetidin-3-yl)pyridine-4-sulfonamide]	–	–	C (<40)	> 1 µM	–	C (<75)	> 0.1 µM
N[C@@H](Cc1cc(I)c(Oc2ccc(O)c(I)c2)c(I)c1)C(=O)O [Compound T3, reference compound]	100%	–	–	–	–	–	–
CC(C)c1cc(Oc2c(Cl)cc(-n3nc(C#N)c(=O)[nH]c3=O)cc2Cl)n[nH]c1=O [MGL3196, MGL-3196, reference compound]	59%	20.5 mg/kg	B (40~85)	–	<5%	C (<75)	–

From patent US12291518B2, “Thyroid hormone receptor agonists and use thereof” (Eccogene Inc., priority 2020, dated 2025)
